The target of one test is PI3 Kinase α (Homo sapiens, UniProt P42336). The experiment in a line: Fluorescence polarization assay for PI3K (PI3 Kinase α). The test is classed as biochemical. Conditions: diC8-PI(4,5)P2 substrate, 25 μM ATP, one hour at 25° C.
A further test has as its target PI3 Kinase γ (Homo sapiens, UniProt P48736). The experiment in a line: Fluorescence polarization assay for PI3K (PI3 Kinase γ). The test is classed as biochemical. Conditions: diC8-PI(4,5)P2 substrate, 25 μM ATP, one hour at 25° C. A general note: Fluorescence polarisation rises when a labelled molecule tumbles more slowly, as on binding a larger partner.

As usually defined, the IC50 is the point on the concentration scale where inhibition reaches its midpoint. The low end stands for greater potency, the high end for weaker potency.

Sequence of PI3 Kinase α (P42336 whole entry): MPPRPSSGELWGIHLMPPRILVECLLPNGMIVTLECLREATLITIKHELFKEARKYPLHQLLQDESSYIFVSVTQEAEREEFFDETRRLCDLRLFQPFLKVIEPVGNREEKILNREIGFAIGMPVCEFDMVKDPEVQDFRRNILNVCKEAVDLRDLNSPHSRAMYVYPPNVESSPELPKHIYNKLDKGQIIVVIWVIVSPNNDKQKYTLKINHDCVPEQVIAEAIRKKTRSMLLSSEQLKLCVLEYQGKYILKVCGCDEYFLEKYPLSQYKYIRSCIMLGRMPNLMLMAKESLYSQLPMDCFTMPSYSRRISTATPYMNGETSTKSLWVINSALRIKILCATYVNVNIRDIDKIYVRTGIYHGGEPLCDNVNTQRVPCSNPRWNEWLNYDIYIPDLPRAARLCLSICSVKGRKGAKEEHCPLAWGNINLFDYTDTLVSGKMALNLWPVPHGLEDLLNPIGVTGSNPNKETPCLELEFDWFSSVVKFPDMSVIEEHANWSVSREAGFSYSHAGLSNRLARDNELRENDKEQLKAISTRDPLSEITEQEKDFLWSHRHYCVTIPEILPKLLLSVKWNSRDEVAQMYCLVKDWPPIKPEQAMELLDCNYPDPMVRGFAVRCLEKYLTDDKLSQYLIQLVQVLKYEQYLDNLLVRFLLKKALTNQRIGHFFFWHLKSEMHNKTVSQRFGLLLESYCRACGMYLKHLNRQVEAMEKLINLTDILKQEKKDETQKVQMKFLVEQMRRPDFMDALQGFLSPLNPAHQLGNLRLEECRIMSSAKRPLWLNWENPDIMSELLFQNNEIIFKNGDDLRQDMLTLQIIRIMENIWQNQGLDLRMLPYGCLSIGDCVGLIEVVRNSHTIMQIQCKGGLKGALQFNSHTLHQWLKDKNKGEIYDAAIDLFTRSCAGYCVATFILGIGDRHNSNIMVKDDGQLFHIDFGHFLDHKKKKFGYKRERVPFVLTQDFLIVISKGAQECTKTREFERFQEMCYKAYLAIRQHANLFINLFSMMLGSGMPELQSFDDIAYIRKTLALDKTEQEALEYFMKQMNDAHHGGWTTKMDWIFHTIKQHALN
Sequence of PI3 Kinase α (P27986 whole entry partner): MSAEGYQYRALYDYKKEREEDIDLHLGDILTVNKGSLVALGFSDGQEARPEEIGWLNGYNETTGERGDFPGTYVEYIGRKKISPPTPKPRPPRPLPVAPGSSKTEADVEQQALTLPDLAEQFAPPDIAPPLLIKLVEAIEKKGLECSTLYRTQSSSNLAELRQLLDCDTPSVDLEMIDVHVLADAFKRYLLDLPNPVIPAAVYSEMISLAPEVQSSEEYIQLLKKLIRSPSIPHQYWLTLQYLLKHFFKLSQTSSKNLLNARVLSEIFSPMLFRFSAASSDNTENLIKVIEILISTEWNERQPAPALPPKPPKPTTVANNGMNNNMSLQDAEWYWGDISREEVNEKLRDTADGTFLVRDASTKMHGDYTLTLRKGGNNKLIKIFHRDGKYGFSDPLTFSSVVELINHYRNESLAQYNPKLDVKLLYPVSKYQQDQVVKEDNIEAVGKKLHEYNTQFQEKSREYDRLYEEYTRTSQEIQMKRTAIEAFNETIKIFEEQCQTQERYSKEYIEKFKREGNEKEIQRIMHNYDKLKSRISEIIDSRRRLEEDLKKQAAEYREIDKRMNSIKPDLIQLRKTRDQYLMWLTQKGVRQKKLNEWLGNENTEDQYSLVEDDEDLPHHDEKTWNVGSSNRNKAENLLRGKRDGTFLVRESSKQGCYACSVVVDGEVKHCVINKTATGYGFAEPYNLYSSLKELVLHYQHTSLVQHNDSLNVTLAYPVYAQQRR
Sequence of PI3 Kinase γ (P48736 whole entry): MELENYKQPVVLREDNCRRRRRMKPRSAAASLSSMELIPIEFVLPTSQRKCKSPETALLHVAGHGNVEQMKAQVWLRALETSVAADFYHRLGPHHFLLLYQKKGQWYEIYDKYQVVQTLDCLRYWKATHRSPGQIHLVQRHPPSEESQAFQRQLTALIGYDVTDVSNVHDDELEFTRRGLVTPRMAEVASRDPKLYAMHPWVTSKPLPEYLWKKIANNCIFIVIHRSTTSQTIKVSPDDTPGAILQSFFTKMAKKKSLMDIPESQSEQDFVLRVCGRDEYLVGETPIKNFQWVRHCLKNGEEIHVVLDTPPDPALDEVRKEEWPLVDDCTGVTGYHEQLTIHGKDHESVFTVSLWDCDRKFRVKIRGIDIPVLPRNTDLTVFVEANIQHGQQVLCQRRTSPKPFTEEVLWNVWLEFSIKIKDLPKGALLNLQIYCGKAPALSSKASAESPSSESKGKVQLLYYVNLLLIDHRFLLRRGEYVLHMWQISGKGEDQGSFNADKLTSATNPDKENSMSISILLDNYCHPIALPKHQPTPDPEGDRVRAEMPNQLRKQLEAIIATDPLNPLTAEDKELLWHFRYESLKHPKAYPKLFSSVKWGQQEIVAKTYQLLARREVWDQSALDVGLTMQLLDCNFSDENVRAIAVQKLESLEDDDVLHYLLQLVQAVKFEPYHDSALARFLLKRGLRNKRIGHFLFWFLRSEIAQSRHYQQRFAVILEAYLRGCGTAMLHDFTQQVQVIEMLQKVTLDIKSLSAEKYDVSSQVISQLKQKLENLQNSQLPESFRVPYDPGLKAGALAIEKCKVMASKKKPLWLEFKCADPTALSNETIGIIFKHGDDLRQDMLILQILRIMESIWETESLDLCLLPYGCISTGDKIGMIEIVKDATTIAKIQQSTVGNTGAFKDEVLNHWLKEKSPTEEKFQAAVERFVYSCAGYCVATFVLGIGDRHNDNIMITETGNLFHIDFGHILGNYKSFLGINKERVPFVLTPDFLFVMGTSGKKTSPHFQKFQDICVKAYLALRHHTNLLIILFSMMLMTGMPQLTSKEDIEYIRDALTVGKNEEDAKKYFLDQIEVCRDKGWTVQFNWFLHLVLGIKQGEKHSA

On to `CCn1nnc2c(N3CCOCC3)nc(-c3ccc(NC(=O)Nc4ccc(C(=O)N(C)CCNC)cc4)cc3)nc21` [Example 52, 4-({[4-(3-ethyl-7-morpholin-4-yl-3H-[1,2,3]triazolo[4,5-d]pyrimidin-5-yl)phenyl]carbamoyl}amino)-N-methyl-N-[2-(methylamino)ethyl]benzamide], for which the values for the IC50 on PI3 Kinase α and at PI3 Kinase γ were less than 0.0019 µM and 0.0115 µM, respectively.

In the case of `COC(=O)c1ccc(Cn2nnc3c(N4CCOCC4)nc(-c4cccc(CO)c4)nc32)cc1` [Example 243, methyl 4-({5-[3-(hydroxymethyl)phenyl]-7-morpholin-4-yl-3H-[1,2,3]triazolo[4,5-d]pyrimidin-3-yl}methyl)benzoate], the IC50 stood at 0.765 µM against PI3 Kinase α and 9.59 µM at PI3 Kinase γ.

Consider `CCn1nnc2c(N3CCOC[C@@H]3C)nc(-c3ccc(NC(=O)Nc4cccs4)cc3)nc21` [Example 69, (S)-1-(4-(3-ethyl-7-(3-methylmorpholino)-3H-[1,2,3]triazolo[4,5-d]pyrimidin-5-yl)phenyl)-3-(thiophen-2-yl)urea], for which the results for the IC50 against PI3 Kinase α and against PI3 Kinase γ were 0.0085 µM and 0.0975 µM, respectively.

Take `Oc1cccc(-c2nc(N3CCOCC3)c3nnn(CCN4CCN(Cc5cccnc5)CC4)c3n2)c1` [Example 111, 3-(7-morpholin-4-yl-3-{2-[4-(pyridin-3-ylmethyl)piperazin-1-yl]ethyl}-3H-[1,2,3]triazolo[4,5-d]pyrimidin-5-yl)phenol]: the half-inhibitory concentration (IC50) on PI3 Kinase α came out at 0.439 µM; on PI3 Kinase γ, 2.29 µM.

As for `CC(C)(C)NC(=O)c1ccc(Cn2nnc3c(N4CCOCC4)nc(-c4cccc(O)c4)nc32)cc1` [Example 222, N-tert-butyl-4-{[5-(3-hydroxyphenyl)-7-morpholin-4-yl-3H-[1,2,3]triazolo[4,5-d]pyrimidin-3-yl]methyl}benzamide], the IC50 is 0.42 µM at PI3 Kinase α and 1.4 µM on PI3 Kinase γ.

`O=C(NCc1ccco1)c1ccc(Cn2nnc3c(N4CCOCC4)nc(-c4cccc(O)c4)nc32)cc1` [Example 230, N-(2-furylmethyl)-4-{[5-(3-hydroxyphenyl)-7-morpholin-4-yl-3H-[1,2,3]triazolo[4,5-d]pyrimidin-3-yl]methyl}benzamide]: the results for the IC50 against PI3 Kinase α and against PI3 Kinase γ were 0.118 µM and 0.938 µM, respectively.

Turning to `Cn1cccc1CN1CCC(n2nnc3c(N4CCOCC4)nc(-c4cncc(O)c4)nc32)CC1` [Example 19, 5-(3-{1-[(1-methyl-1H-pyrrol-2-yl)methyl]piperidin-4-yl}-7-morpholin-4-yl-3H-[1,2,3]triazolo[4,5-d]pyrimidin-5-yl)pyridin-3-ol], the figures for the IC50 on PI3 Kinase α and against PI3 Kinase γ were 0.083 µM and 0.277 µM, respectively.

`CC(C)(C)OC(=O)N1CCC(n2nnc3c(N4CCOCC4)nc(-c4cnc(N)nc4)nc32)CC1` [Example 148, tert-butyl 4-[5-(2-aminopyrimidin-5-yl)-7-morpholin-4-yl-3H-[1,2,3]triazolo[4,5-d]pyrimidin-3-yl]piperidine-1-carboxylate]: the IC50 amounted to 0.111 µM against PI3 Kinase α and 1.4 µM at PI3 Kinase γ.

Consider `CNC(=O)Nc1ccc(-c2nc(N3CCOCC3)c3nnn(C4CCN(C(=O)OC(C)(C)C)CC4)c3n2)cc1` [Example 168, tert-butyl 4-(5-{4-[(methylcarbamoyl)amino]phenyl}-7-morpholin-4-yl-3H-[1,2,3]triazolo[4,5-d]pyrimidin-3-yl)piperidine-1-carboxylate], for which the IC50 was 0.2 µM at PI3 Kinase α and 3.24 µM on PI3 Kinase γ.

As to `O=C(NCCc1cnc[nH]1)c1ccc(Cn2nnc3c(N4CCOCC4)nc(-c4cccc(O)c4)nc32)cc1` [Example 231, 4-{[5-(3-hydroxyphenyl)-7-morpholin-4-yl-3H-[1,2,3]triazolo[4,5-d]pyrimidin-3-yl]methyl}-N-[2-(1H-imidazol-5-yl)ethyl]benzamide], the IC50 at PI3 Kinase α was 0.06 µM; against PI3 Kinase γ, 2.3 µM.

On to `CC(C)(C)OC(=O)N1CC(n2nnc3c(N4CCOCC4)nc(-c4ccc(NC(=O)Nc5ccncc5)cc4)nc32)C1` [Example 129, tert-butyl 3-(7-morpholin-4-yl-5-{4-[(pyridin-4-ylcarbamoyl)amino]phenyl}-3H-[1,2,3]triazolo[4,5-d]pyrimidin-3-yl)azetidine-1-carboxylate], for which the IC50 was determined as 0.03 µM against PI3 Kinase α and 0.156 µM at PI3 Kinase γ.

Turning to `O=C(O)c1cccc(-n2nnc3c(N4CCOCC4)nc(-c4cccc(O)c4)nc32)c1` [Example 118, 3-[5-(3-hydroxyphenyl)-7-morpholin-4-yl-3H-[1,2,3]triazolo[4,5-d]pyrimidin-3-yl]benzoic acid], the IC50 is 0.0275 µM against PI3 Kinase α and 0.102 µM against PI3 Kinase γ.

On to `CCn1nnc2c(N3CCOCC3)nc(-c3ccc(NC(=O)Nc4cccs4)cc3)nc21` [Example 40, 1-[4-(3-ethyl-7-morpholin-4-yl-3H-[1,2,3]triazolo[4,5-d]pyrimidin-5-yl)phenyl]-3-(2-thienyl)urea], for which the IC50 turned out to be 0.0025 µM at PI3 Kinase α and 0.0115 µM against PI3 Kinase γ.

With `CC(C)n1nnc2c(N3CCOCC3)nc(-c3ccc(NC(=O)Nc4ccc(N5CCOCC5)cc4)cc3)nc21` [Example 85, 1-[4-(3-Isopropyl-7-morpholin-4-yl-3H-[1,2,3]triazolo[4,5-d]pyrimidin-5-yl)-phenyl]-3-(4-morpholin-4-yl-phenyl)-urea], the IC50 stood at 0.025 µM against PI3 Kinase α and 0.078 µM on PI3 Kinase γ.

In the case of `O=C(Nc1ccc(F)cc1)c1ccc(Cn2nnc3c(N4CCOCC4)nc(-c4cccc(O)c4)nc32)cc1` [Example 217, N-(4-fluorophenyl)-4-{[5-(3-hydroxyphenyl)-7-morpholin-4-yl-3H-[1,2,3]triazolo[4,5-d]pyrimidin-3-yl]methyl}benzamide], the IC50 against PI3 Kinase α and against PI3 Kinase γ was 0.24 µM in each case.

For `CCn1nnc2c(N3CCOC[C@@H]3C)nc(-c3ccc(NC(=O)Nc4ccc(CO)cc4)cc3)nc21` [Example 70, (S)-1-(4-(3-ethyl-7-(3-methylmorpholino)-3H-[1,2,3]triazolo[4,5-d]pyrimidin-5-yl)phenyl)-3-(4-(hydroxymethyl)phenyl)urea], the IC50 against PI3 Kinase α was 0.0055 µM; at PI3 Kinase γ it was 0.103 µM.

In the case of `CC(C)(C)OC(=O)N1CCC(NC(=O)c2ccc(Cn3nnc4c(N5CCOCC5)nc(-c5cccc(O)c5)nc43)cc2)CC1` [Example 208, tert-butyl 4-[(4-{[5-(3-hydroxyphenyl)-7-morpholin-4-yl-3H-[1,2,3]triazolo[4,5-d]pyrimidin-3-yl]methyl}benzoyl)amino]piperidine-1-carboxylate], the figures for the concentration for half-maximal inhibition (IC50) at PI3 Kinase α and on PI3 Kinase γ were 0.122 µM and 1.36 µM, respectively.

With `Nc1ccc(-c2nc(N3CCOCC3)c3nnn(CC(F)(F)F)c3n2)cc1` [Example 133, 4-[7-morpholin-4-yl-3-(2,2,2-trifluoroethyl)-3H-[1,2,3]triazolo[4,5-d]pyrimidin-5-yl]aniline], the IC50 is 0.37 µM at PI3 Kinase α and 1.38 µM against PI3 Kinase γ.

Turning to `CCn1nnc2c(N3CCOCC3)nc(-c3ccc(NC(=O)Nc4ccc(C(=O)N5CCNC(C)(C)C5)cc4)cc3)nc21` [Example 57, 1-{4-[(3,3-dimethylpiperazin-1-yl)carbonyl]phenyl}-3-[4-(3-ethyl-7-morpholin-4-yl-3H-[1,2,3]triazolo[4,5-d]pyrimidin-5-yl)phenyl]urea], the IC50 against PI3 Kinase α is less than 0.0017 µM; against PI3 Kinase γ it was 0.007 µM.

As to `O=C(Nc1ccc(-c2nc(N3CCOCC3)c3nnn(CC(F)(F)F)c3n2)cc1)Nc1cccnc1` [Example 135, 1-{4-[7-morpholin-4-yl-3-(2,2,2-trifluoroethyl)-3H-[1,2,3]triazolo[4,5-d]pyrimidin-5-yl]phenyl}-3-pyridin-3-ylurea], the IC50 against PI3 Kinase α came to 0.0095 µM; at PI3 Kinase γ, 0.03 µM.

On to `CCn1nnc2c(N3CCOC[C@@H]3C)nc(-c3ccc(N)cc3)nc21` [Example 67, (S)-4-(3-ethyl-7-(3-methylmorpholino)-3H-[1,2,3]triazolo[4,5-d]pyrimidin-5-yl)aniline], for which the IC50 at PI3 Kinase α is 2.14 µM; against PI3 Kinase γ, more than 10 µM.

For `NC(=O)c1cccc(-n2nnc3c(N4CCOCC4)nc(-c4cccc(O)c4)nc32)c1` [Example 119, 3-[5-(3-hydroxyphenyl)-7-morpholin-4-yl-3H-[1,2,3]triazolo[4,5-d]pyrimidin-3-yl]benzamide], the IC50 on PI3 Kinase α worked out at 0.0225 µM; on PI3 Kinase γ, 0.315 µM.

Take `O=C(Nc1ccc(-c2nc(N3CCOCC3)c3nnn(C4CC4)c3n2)cc1)Nc1cccs1` [Example 80, 1-(4-(3-cyclopropyl-7-morpholino-3H-[1,2,3]triazolo[4,5-d]pyrimidin-5-yl)phenyl)-3-(thiophen-2-yl)urea]: the IC50 against PI3 Kinase α stood at 0.003 µM; at PI3 Kinase γ it was 0.0195 µM.

In the case of `CC(C)CN1CCN(CCn2nnc3c(N4CCOCC4)nc(-c4cccc(O)c4)nc32)CC1` [Example 108, 3-{3-[2-(4-isobutylpiperazin-1-yl)ethyl]-7-morpholin-4-yl-3H-[1,2,3]triazolo[4,5-d]pyrimidin-5-yl}phenol], the IC50 worked out at 0.941 µM against PI3 Kinase α and 2.77 µM against PI3 Kinase γ.

As to `CC(C)(C)OC(=O)N1CC(n2nnc3c(N4CCOCC4)nc(-c4ccc(NC(=O)Nc5cccnc5)cc4)nc32)C1` [Example 130, tert-butyl 3-(7-morpholin-4-yl-5-{4-[(pyridin-3-ylcarbamoyl)amino]phenyl}-3H-[1,2,3]triazolo[4,5-d]pyrimidin-3-yl)azetidine-1-carboxylate], the results for the IC50 against PI3 Kinase α and against PI3 Kinase γ were 0.034 µM and 0.165 µM, respectively.

On to `CCn1nnc2c(N3CCOC[C@@H]3C)nc(-c3ccc(NC(=O)Nc4ccncc4)cc3)nc21` [Example 71, (S)-1-(4-(3-ethyl-7-(3-methylmorpholino)-3H-[1,2,3]triazolo[4,5-d]pyrimidin-5-yl)phenyl)-3-(pyridin-4-yl)urea], for which the results for the IC50 on PI3 Kinase α and at PI3 Kinase γ were 0.007 µM and 0.0555 µM, respectively.

On to `Cn1nnc2c(N3CCOCC3)nc(-c3ccc(NC(=O)Nc4cccs4)cc3)nc21` [Example 200, 1-[4-(3-methyl-7-morpholin-4-yl-3H-[1,2,3]triazolo[4,5-d]pyrimidin-5-yl)phenyl]-3-(2-thienyl)urea], for which the IC50 on PI3 Kinase α amounted to 0.0065 µM; at PI3 Kinase γ it was 0.022 µM.

Source of the values: patent publication US20090181963A1, “3H-[1,2,3]TRIAZOLO[4,5-D]PYRIMIDINE COMPOUNDS, THEIR USE AS mTOR KINASE AND PI3 KINASE INHIBITORS, AND THEIR [sequence]” (Wyeth, priority 2008, published 2009).
